Data: paper PMC3514216, “SRC Homology 2 Domain Binding Sites in Insulin, IGF-1 and FGF receptor mediated signaling networks reveal an extensive potential interactome” (Cell Communication and Signaling : CCS, 2012)
Changes are numbered by the printed parent chain. pKd: −log10 of the molar value. Residues, ends and D or L forms follow the SMILES beside them.

Key:
Abl1 SH2 domain [1] = biological target: T1, Abl1 SH2 domain (Homo sapiens, UniProt P00519); design: method as in earlier work; conditions: SH2 protein microarray; N.B. = non binding; read-out: Protein Microarray (Macbeath) – KD; cited from earlier work
T1 sequence (P00519 127-217 limits assumed): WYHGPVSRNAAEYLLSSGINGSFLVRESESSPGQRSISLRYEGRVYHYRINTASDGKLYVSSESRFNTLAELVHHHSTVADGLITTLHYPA

Grb2 SH2 domain [2] = biological target: T2, Grb2 SH2 domain (Homo sapiens, UniProt P62993); design: method as in earlier work; conditions: SH2 protein microarray; N.B. = non binding; read-out: Protein Microarray (Macbeath) – KD; cited from earlier work
T2 sequence (P62993 60-152 limits assumed): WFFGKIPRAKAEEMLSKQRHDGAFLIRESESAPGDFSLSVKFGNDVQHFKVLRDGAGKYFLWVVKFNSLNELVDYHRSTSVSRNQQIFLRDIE

Abl2 SH2 domain [3] = biological target: T3, Abl2 SH2 domain (Homo sapiens, UniProt P42684); design: method as in earlier work; conditions: SH2 protein microarray; N.B. = non binding; read-out: Protein Microarray (Macbeath) – KD; cited from earlier work
T3 sequence (P42684 173-263 limits assumed): T1 sequence (P00519 127-217 limits assumed) with N9S, G18L, R35L, A53T, S54A, L58V, S61T, S62A, N67S, I84V

CrkL SH2 domain [4] = biological target: T4, CrkL SH2 domain (Homo sapiens, UniProt P46109); design: method as in earlier work; conditions: N.B. = non binding, cited from earlier work
T4 sequence (P46109 14-102 limits assumed): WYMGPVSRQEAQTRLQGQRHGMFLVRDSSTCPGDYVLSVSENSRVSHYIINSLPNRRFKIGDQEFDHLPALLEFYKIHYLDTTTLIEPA

Src SH2 domain [5] = biological target: T5, Src SH2 domain (Homo sapiens, UniProt P12931); design: method as in earlier work; conditions: SH2 protein microarray; N.B. = non binding; read-out: Protein Microarray (Macbeath) – KD; cited from earlier work
Grb7 SH2 domain [6] = biological target: Grb7 SH2 domain; design: method as in earlier work; conditions: SH2 protein microarray; N.B. = non binding; read-out: Protein Microarray (Macbeath) – KD; cited from earlier work
Grb7 SH2 domain [7] = assay: SPOT peptide array; format: binding; conditions: spot intensity as factor of array mean; GST-SH2 0.25 μM
How it was run: (§1)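 Membrane-bound 11-mer phosphotyrosine peptides (pTyr at position 5, four N-terminal and six C-terminal flanking residues; ~5 nmol per spot) from receptor, scaffold and signalling proteins were probed with GST–SH2 fusions. Bound domain was detected with anti-GST and near-infrared secondary antibodies; spots >3× membrane mean scored positive, <1× mean negative.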

Src SH2 domain [8] = biological target: T5, Src SH2 domain; assay: SPOT peptide array; format: binding; conditions: spot intensity as factor of array mean; GST-SH2 0.25 μM
How it was run: as §1

Grb2 SH2 domain [9] = biological target: T2, Grb2 SH2 domain; assay: SPOT peptide array; format: binding; conditions: spot intensity as factor of array mean; GST-SH2 0.25 μM
How it was run: as §1

Abl2 SH2 domain [10] = biological target: T3, Abl2 SH2 domain; assay: SPOT peptide array; format: binding; conditions: spot intensity as factor of array mean; GST-SH2 0.25 μM
How it was run: as §1

Itk SH2 domain = Itk SH2 domain (Homo sapiens, UniProt Q08881); assay: SPOT peptide array; format: binding; conditions: spot intensity as factor of array mean; GST-SH2 0.25 μM
Chain of Itk SH2 domain (Q08881 239-338 limits assumed): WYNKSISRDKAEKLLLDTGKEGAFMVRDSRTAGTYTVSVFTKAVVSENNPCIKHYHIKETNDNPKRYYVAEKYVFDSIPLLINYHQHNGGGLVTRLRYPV

Yes SH2 domain [11] = biological target: Yes SH2 domain; design: method as in earlier work; conditions: SH2 protein microarray; N.B. = non binding; read-out: Protein Microarray (Macbeath) – KD; cited from earlier work
Rasa1_N SH2 domain = Rasa1_N SH2 domain (Homo sapiens, UniProt P20936); assay: SPOT peptide array; format: binding; conditions: spot intensity as factor of array mean; GST-SH2 0.25 μM
Chain of Rasa1_N SH2 domain (P20936 181-272 limits assumed): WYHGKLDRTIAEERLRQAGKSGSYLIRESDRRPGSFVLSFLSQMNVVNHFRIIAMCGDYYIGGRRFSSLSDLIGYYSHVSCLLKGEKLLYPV

CrkL SH2 domain [12] = biological target: T4, CrkL SH2 domain; assay: SPOT peptide array; format: binding; conditions: spot intensity as factor of array mean; GST-SH2 0.25 μM
How it was run: as §1

Abl1 SH2 domain [13] = biological target: T1, Abl1 SH2 domain; assay: SPOT peptide array; format: binding; conditions: spot intensity as factor of array mean; GST-SH2 0.25 μM
How it was run: as §1

Yes SH2 domain [14] = assay: SPOT peptide array; format: binding; conditions: spot intensity as factor of array mean; GST-SH2 0.25 μM
How it was run: as §1

Gads SH2 domain [15] = biological target: Gads SH2 domain; design: method as in earlier work; conditions: SH2 protein microarray; N.B. = non binding; read-out: Protein Microarray (Macbeath) – KD; cited from earlier work
Gads SH2 domain [16] = assay: SPOT peptide array; format: binding; conditions: spot intensity as factor of array mean; GST-SH2 0.25 μM
How it was run: as §1

Crk SH2 domain [17] = biological target: T6, Crk SH2 domain (Homo sapiens, UniProt P46108); assay: SPOT peptide array; format: binding; conditions: spot intensity as factor of array mean; GST-SH2 0.25 μM
T6 sequence (P46108 13-118 limits assumed): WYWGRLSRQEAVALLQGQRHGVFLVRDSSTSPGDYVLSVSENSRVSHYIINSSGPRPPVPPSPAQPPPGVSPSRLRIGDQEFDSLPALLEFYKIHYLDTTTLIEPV
How it was run: as §1

Crk SH2 domain [18] = biological target: T6, Crk SH2 domain; design: method as in earlier work; conditions: N.B. = non binding; cited from earlier work
Plcg2_N SH2 domain = Plcg2_N SH2 domain (Homo sapiens, UniProt P16885); design: method as in earlier work; conditions: N.B. = non binding; cited from earlier work
Chain of Plcg2_N SH2 domain (P16885 532-635 limits assumed): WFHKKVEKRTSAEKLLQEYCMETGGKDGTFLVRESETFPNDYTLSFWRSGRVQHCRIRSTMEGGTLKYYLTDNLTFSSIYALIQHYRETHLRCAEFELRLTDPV

Nck1 SH2 domain = Nck1 SH2 domain (Homo sapiens, UniProt P16333); design: method as in earlier work; conditions: N.B. = non binding; cited from earlier work
Vav1 SH2 domain = Vav1 SH2 domain (Homo sapiens, UniProt P15498); design: method as in earlier work; conditions: N.B. = non binding; cited from earlier work
Chain of Vav1 SH2 domain (P15498 671-765 limits assumed): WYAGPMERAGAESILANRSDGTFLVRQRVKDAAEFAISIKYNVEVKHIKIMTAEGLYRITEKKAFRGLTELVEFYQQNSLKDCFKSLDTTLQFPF

Compound: QARRPPGLEpYCYNPSHND* (QARRPPGLEYCYNPSHND) [FGFR1 Y583 phosphopeptide; Cys replaced with Ala or Ser on peptide arrays]
- pKd (Abl1 SH2 domain [1]): 5.74
- pKd (Grb2 SH2 domain [2]): 5.79
- pKd (Abl2 SH2 domain [3]): 6.47
- pKd (CrkL SH2 domain [4]; SH2 protein microarray, read-out: Protein Microarray (Macbeath) – KD): 5.81

Compound: EIFTLGGSPpYPGVPVEED
- pKd (Src SH2 domain [5]): 5.75
- pKd (Grb7 SH2 domain [6]): 6.19
- Peptide array intensity (X mean) (Grb7 SH2 domain [7]): <2x X Mean
- Peptide array intensity (X mean) (Src SH2 domain [8]): <2x X Mean
- Peptide array intensity (X mean) (Grb2 SH2 domain [9]): <2x X Mean
- Peptide array intensity (X mean) (Abl2 SH2 domain [10]): <2x X Mean

Compound: QARRPPGLEpYCYNPSHND* [FGFR1 Y583 phosphopeptide; Cys replaced with Ala or Ser on peptide arrays]
- Peptide array intensity (X mean) (Itk SH2 domain): <2x X Mean
- pKd (Yes SH2 domain [11]): 5.81
- Peptide array intensity (X mean) (Rasa1_N SH2 domain): <2x X Mean
- pKd (Grb7 SH2 domain [6]): 6.00
- Peptide array intensity (X mean) (Grb7 SH2 domain [7]): >3x X Mean
- Peptide array intensity (X mean) (CrkL SH2 domain [12]): <2x X Mean
- Peptide array intensity (X mean) (Abl1 SH2 domain [13]): >3x X Mean
- Peptide array intensity (X mean) (Yes SH2 domain [14]): <2x X Mean
- Peptide array intensity (X mean) (Grb2 SH2 domain [9]): <2x X Mean
- Peptide array intensity (X mean) (Abl2 SH2 domain [10]): <2x X Mean

Compound: ARDIHHIDYpYKKTTNGRD
- pKd (Gads SH2 domain [15]): 6.00
- Peptide array intensity (X mean) (Gads SH2 domain [16]): <2x X Mean
- Peptide array intensity (X mean) (Crk SH2 domain [17]): <2x X Mean

Compound: CSCC[C@H](NC(=O)[C@@H]1CCCN1C(=O)[C@@H](N)[C@@H](C)O)C(=O)N[C@@H](CC(C)C)C(=O)N[C@@H](C)C(=O)NCC(=O)N[C@H](C(=O)N[C@@H](CO)C(=O)N[C@@H](CCC(=O)O)C(=O)N[C@@H](Cc1ccc(OP(=O)(O)O)cc1)C(=O)N[C@@H](CCC(=O)O)C(=O)N[C@@H](CC(C)C)C(=O)N1CCC[C@H]1C(=O)N[C@@H](CCC(=O)O)C(=O)N[C@@H](CC(=O)O)C(=O)N1CCC[C@H]1C(=O)N[C@@H](CCCNC(=N)N)C(=O)N[C@@H](CC(=O)O)C(=O)O)C(C)C (HELM PEPTIDE1{T.P.M.L.A.G.V.S.E.[O=C([C@H](Cc1ccc(OP(=O)(O)O)cc1)N[*:1])[*:2]].E.L.P.E.D.P.R.D}$$$$V2.0)
- Protein Microarray (Macbeath) – KD (Crk SH2 domain [18]): N.B.
- Protein Microarray (Macbeath) – KD (CrkL SH2 domain [4]): N.B.
- Protein Microarray (Macbeath) – KD (Plcg2_N SH2 domain): N.B.
- Protein Microarray (Macbeath) – KD (Nck1 SH2 domain): N.B.
- Protein Microarray (Macbeath) – KD (Vav1 SH2 domain): N.B.
